Laboratory results from US5589477A, “Pyrimidine derivatives and drugs” (Nippon Shinyaku Company, Limited, priority 1990, dated 1996).
Where a name gives a salt, the structure may show the parent alone.

These compounds were tested against T1, muscarinic M1 receptors (Rattus norvegicus, UniProt P08482) (assay: Binding assay for muscarinic M1 receptors ([^3 H]pirenzepine displacement, rat brain membranes)). Conditions: 1 nM [^3 H]pirenzepine, pH 7.4, 25° C., 60 minutes.
T1 construct: receptor membrane preparations from rat brain; from tissue; host or cells: rat brain membranes
T1 sequence (P08482 1-460): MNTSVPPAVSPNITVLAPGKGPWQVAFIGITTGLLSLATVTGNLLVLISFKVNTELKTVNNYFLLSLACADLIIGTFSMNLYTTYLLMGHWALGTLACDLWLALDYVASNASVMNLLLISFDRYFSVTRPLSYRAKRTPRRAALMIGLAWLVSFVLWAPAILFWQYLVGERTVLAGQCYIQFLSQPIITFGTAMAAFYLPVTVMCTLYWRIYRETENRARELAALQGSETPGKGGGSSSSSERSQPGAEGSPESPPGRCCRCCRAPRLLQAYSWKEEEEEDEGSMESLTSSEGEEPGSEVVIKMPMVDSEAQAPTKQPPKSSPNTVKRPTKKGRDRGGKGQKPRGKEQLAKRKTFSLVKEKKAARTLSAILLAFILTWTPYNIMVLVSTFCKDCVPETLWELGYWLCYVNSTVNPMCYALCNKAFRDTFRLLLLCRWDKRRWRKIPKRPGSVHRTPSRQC
Protocol: (3) Effect on muscarinic M1 receptors
Binding assay for muscarinic M1 receptors was carried out according to the method of Watson and Yamamura [Life Sci. 3001-3011(1983)]. Namely, the receptor membrane preparations from rat brain were incubated with 1 nM [^3 H]pirenzepine in 10 mM Na/K phosphate buffer solution (pH 7.4) at 25° C. for 60 minutes. 1 μM of atropine was used as a displacer.

Compound | IC50 [nM]
Fc1ccc(-c2nc(O[C@H]3CN4CCC3CC4)cc(C(F)(F)F)n2)cc1 [Example 63, (R)-(-)-4-(1-azabicyclo[2,2,2]octo-3-yloxy)-2-(4-fluorophenyl) 6-trifluoromethylpyrimidine maleate] | 600
Cc1cc(O[C@H]2CN3CCC2CC3)nc(-c2ccc(F)cc2)n1 [Example 27, (R)-(-)-4-(1-azabicyclo[2,2,2]octo-3-yloxy)-2-(4-fluorophenyl) 6-methylpyrimidine maleate] | 170
Cc1cc(O[C@H]2CN3CCC2CC3)nc(-c2ccc(Cl)cc2)n1 [Example 44, (R)-(-)-4-(1-azabicyclo[2,2,2]octo-3-yloxy)-2-(4-chlorophenyl) 6-methylpyrimidine maleate] | 240
Cc1cc(O[C@H]2CN3CCC2CC3)nc(-c2ccc(O)cc2)n1 [Example 58, (R)-(-)-4-(1-azabicyclo[2,2,2]octo-3-yloxy)-2-(4-hydroxyphenyl) 6-methylpyrimidine maleate] | 810
COc1ccc(-c2nc(O[C@H]3CN4CCC3CC4)cc(C(C)(C)C)n2)cc1 [Example 60, (R)-(-)-4-(1-azabicyclo[2,2,2]octo-3-yloxy)-6-tert-butyl-2-(4-methoxyphenyl)pyrimidine maleate] | 3100

The compounds below were run on mice (assay: Acute toxicity (mice, p.o.)). Conditions: 1000 mg/kg p.o., male mice, 72 hours.
Format: in vivo
Protocol: Male mice, 6 weeks of age (4 mice/group) were deprived of foods overnight. Test drugs suspended in 0.5% methyl cellulose solution were administered orally to the mice. Whether the animals were dead or not was observed 72 hours after the treatment of the drugs.

Compound | Lethality (Number of dead animals/Number of animals used)
Cc1cc(N2CCN(C(c3ccccc3)c3ccccc3)CC2)nc(-c2ccccc2)n1 [Example 35, 4-(4-diphenylmethylpiperazino)-6-methyl-2-phenylpyrimidine] | 0/4
Cc1cc(O[C@H]2CN3CCC2CC3)nc(-c2ccc(Cl)cc2)n1 [Example 44, (R)-(-)-4-(1-azabicyclo[2,2,2]octo-3-yloxy)-2-(4-chlorophenyl) 6-methylpyrimidine maleate] | 0/4
Cc1cc(OCCN2CCN(C(c3ccccc3)c3ccccc3)CC2)nc(-c2ccccc2)n1 [Example 13, 4-[2-(4-diphenylmethylpiperazino)ethoxy]-6-methyl-2-phenylpyrimidine] | 0/4
Cc1cc(O[C@H]2CN3CCC2CC3)nc(-c2ccc(O)cc2)n1 [Example 58, (R)-(-)-4-(1-azabicyclo[2,2,2]octo-3-yloxy)-2-(4-hydroxyphenyl) 6-methylpyrimidine maleate] | 0/4
COc1ccc(-c2nc(C)cc(OCCN3CCN(c4ccccc4)CC3)n2)cc1 [Example 21, 2-(4-methoxyphenyl)-4-methyl-6-[2-(4-phenylpiperazino)ethoxy]pyrimidine] | 0/4
COc1ccc(-c2nc(C)cc(OCCN3CCN(C(c4ccccc4)c4ccccc4)CC3)n2)cc1 [Example 3, 4-[2-(4-diphenylmethylpiperazino)ethoxy]-2-(4-methoxyphenyl)-6-methylpyrimidine] | 0/4
Cc1cc(OCCN2CCN(c3ccccc3)CC2)nc(-c2ccccc2)n1.O=C(O)/C=C\C(=O)O [Example 11, 4-Methyl-2-phenyl-6-[2-(4-phenylpiperazino)ethoxy] pyrimidine maleate] | 0/4
COc1ccc(-c2nc(C)cc(N3CCN(C(c4ccccc4)c4ccccc4)CC3)n2)cc1 [Example 4, 4-(4-diphenylmethylpiperazino)-2-(4-methoxyphenyl)-6-methylpyrimidine] | 0/4
